≈ marks a conversion by molar mass, not a printed value. Where “and” joins values, the source holds several entries; their conditions need not be identical. Equal values may be shown once. Read-outs that look alike come from different tables or passages of the source.
Key:
MRSA strain AH-1263 = test: Broth microdilution antibiotic potentiation; assay type: cell-based, Staphylococcus aureus; details: AH-1263; for MIC: Staphylococcus aureus, MRSA
Description: (§1) Broth Microdilution Method for Antibiotic Potentiation with MRSA Strains. Bacteria were cultured for 6 hours in CAMHB and sub-cultured to 5×10^5 CFU/mL in CAMHB. Subcultures were aliquoted (4 mL) into culture tubes and then inoculated with compound from 10 mM or 100 mM stock in DMSO to the desired concentration. […]. Bacteria treated with antibiotic alone served as the control. Samples from the secondary culture tubes were then aliquoted (200 μL) into the first row of wells of a 96-well microtiter plate. Rows 2-11 were filled (100 μL) with the remaining 4 mL of bacterial subculture containing the adjuvant. Row 12 was filled (100 μL) with uninoculated media. From row 1, 100 μL was transferred to row two and mixed 5-8 times before being transferred to row 3. This procedure was used to serial dilute the rest of the rows through 10. The microtiter plate was then covered in Press 'n Seal and incubated at 37° C.

[1] = tested on: MRSA strain ATCC BAA-1556; test: Broth microdilution antibiotic potentiation; assay type: cell-based, Staphylococcus aureus; details: ATCC BAA-1556; for MIC: Staphylococcus aureus
Description: as §1

MRSA strain AH-2204 = test: Broth microdilution antibiotic potentiation; assay type: cell-based, Staphylococcus aureus; details: Staphylococcus aureus, MRSA, AH-2204
Description: as §1

CRB = test: MIC testing of antibiotics; assay type: cell-based, Staphylococcus aureus; details: for MIC: Staphylococcus aureus, read-out: Minimum inhibitory concentration, CRB
Description: (§2) Bacterial Strains and Chemicals. The bacterial strains used in these studies include: USA300, USA300Δpbp4, USA300Δpbp4 pPBP4, COL, COLn, COLnex, CRB, and CRBΔpbp4. S. aureus strain USA300 is a predominant cause of U.S. community-associated MRSA infections, whereas strain COL is a commonly studied hospital-associated MRSA strain. The S. aureus USA300 pbp4-null strain (USA300Δpbp4) and PBP4 complementation strain (USA300Δpbp4 pPBP4) have been previously described. […] All strains were grown in Mueller Hinton (MH) broth at 37° C., as indicated.
(§3) Prioritized compounds were tested for their ability to reverse PBP4 mediated antibiotic resistance in another S. aureus background using three isogenic strains that became available during the study (generous gift from Dr. S. Chatterjee; University of Maryland). These strains included: 1) COLnex, which is a methicillin susceptible strain, 2) CRB, a methicillin/ceftobiprole resistant strain of COLnex that overproduces PBP4, and 3) CRBΔpbp4, a methicillin susceptible strain of CRB lacking the pbp4 gene.

strain CRBΔpbp4 = test: microbe, parasite or virus in culture; assay type: cell-based, Staphylococcus aureus; details: Staphylococcus aureus, read-out: BPR (ceftobiprole) MIC, Alone
S. aureus strain USA300 = test: microbe, parasite or virus in culture; assay type: cell-based, Staphylococcus aureus
Description: as §2
(§4) Prior to identifying new PBP4 inhibitors, a screening paradigm to identify existing molecules that reverse the antibiotic resistance profile of wild type cells to that of a pbp4 mutant was developed. To define screening conditions three strains were employed: 1) a wild type USA300 MRSA strain, 2) an isogenic pbp4 deletion strain, and 3) a complemented strain harboring a plasmid wildtype pbp4 copy. The antibiotic susceptibility profile of each strain was measured to determine the magnitude with which PBP4 affects resistance to various antibiotics (Table 1).

S. aureus strain CRB = test: microbe, parasite or virus in culture; assay type: cell-based, Staphylococcus aureus; details: Staphylococcus aureus, read-out: BPR (ceftobiprole) MIC, Alone
Description: Fractional Inhibitory Concentration Index (FICI). Fractional inhibitory testing was performed in checkerboard format to determine whether putative PBP4 inhibitors potentiated the antimicrobial effects of β-lactams toward S. aureus strains USA300 and CRB, as previously described (Chojacnki, et al. Journal of Antimicrobial Chemotherapy, 2003, 52, 1). To do so, in triplicate 10^5 CFU of each strain (10 μL) was added to individual wells of a microtiter plate containing 90 μL MH media. […] Plates were incubated at 37° C. for 16-20 hour and the lowest concentration of each test agent that inhibited bacterial growth alone or in combination was determined by the naked eye. The fractional inhibitory concentration (FIC) index was calculated using the formula: FIC of A (MIC of drug A in combination/MIC of drug A alone)+FIC B ([…]/MIC of drug B alone). A synergistic interaction was defined as a FICI value of less than 0.5, an additive interaction was defined as a FICI value between 0.5 and 1.0, an indifferent interaction was defined as a FICI value between 1.0 and 4.0, and an antagonistic interaction was defined as a FICI value of more than 4.0.

USA300Δpbp4 pPBP4 = test: microbe, parasite or virus in culture; assay type: cell-based; details: Staphylococcus aureus, read-out: Minimum inhibitory concentration
COLnex = test: MIC testing of antibiotics; assay type: cell-based; details: Staphylococcus aureus, read-out: Minimum inhibitory concentration
Description: as §2, §3

CRBΔpbp4 = test: MIC testing of antibiotics; assay type: cell-based; details: Staphylococcus aureus, read-out: Minimum inhibitory concentration
Description: as §2, §3

USA300Δpbp4 = test: MIC testing of antibiotics; assay type: cell-based, Staphylococcus aureus; details: for MIC: Staphylococcus aureus, read-out: Minimum inhibitory concentration
Description: as §2, §4

[2] = read-out: Amoxicillin MIC, no compound (—)
[3] = Staphylococcus aureus, USA300, read-out: Minimum inhibitory concentration
[4] = read-out: Cefotaxime MIC, no compound (—)
[5] = read-out: Cephalothin MIC, no compound (—)
[6] = read-out: Imipenem MIC, no compound (—)
[7] = read-out: Piperacillin MIC, no compound (—)

CC1(C)S[C@@H]2[C@H](NC(=O)[C@H](N)c3ccc(O)cc3)C(=O)N2[C@H]1C(=O)O [Amoxicillin, amoxicillin]
Amoxicillin MIC, no compound (—) (MRSA strain AH-1263): 8 µg/mL
MIC (MRSA strain AH-1263; [2]): 4 µg/mL
MIC [1, 2]: 8 µg/mL
MIC (MRSA strain AH-2204; [2]): 2 µg/mL

Nc1nc(/C(=N/O)C(=O)N[C@@H]2C(=O)N3C(C(=O)O)=C(/C=C4\CCN([C@@H]5CCNC5)C4=O)CS[C@H]23)ns1 [BPR, ceftobiprole]
Minimum inhibitory concentration (CRB; CRB): >128 µg/mL
MIC (CRB): 128 µg/mL (≈ 239 µM)
MIC (strain CRBΔpbp4): 0.25 µg/mL (≈ 0.468 µM)
MIC (S. aureus strain USA300; [3]): 0.5 µg/mL (≈ 0.935 µM)
MIC (S. aureus strain CRB): 128 µg/mL
MIC (USA300Δpbp4 pPBP4): 0.5 µg/mL (≈ 0.935 µM)
MIC (COLnex): 0.25 µg/mL (≈ 0.468 µM)
MIC (CRBΔpbp4): 0.25 µg/mL (≈ 0.468 µM)
MIC (USA300Δpbp4): 0.25 µg/mL (≈ 0.468 µM)

O=C(O)c1cn(C2CC2)c2cc(N3CCNCC3)c(F)cc2c1=O [CIP, ciprofloxacin]
MIC (CRB): 0.5 µg/mL (≈ 1.51 µM)
MIC (S. aureus strain USA300; Staphylococcus aureus, USA300; read-out: Minimum inhibitory concentration): 4 µg/mL (≈ 12.1 µM)
Minimum inhibitory concentration (S. aureus strain USA300; USA300): 4 µg/mL (≈ 12.1 µM)
MIC (COLnex): 0.25 µg/mL (≈ 0.754 µM)
MIC (CRBΔpbp4): 0.25 µg/mL (≈ 0.754 µM)
MIC (USA300Δpbp4): 1 µg/mL (≈ 3.02 µM)
Minimum inhibitory concentration (USA300Δpbp4; USA300Δpbp4): 1 µg/mL (≈ 3.02 µM)

CO/N=C(\C(=O)N[C@@H]1C(=O)N2C(C(=O)O)=C(COC(C)=O)CS[C@H]12)c1csc(N)n1 [Cefotaxime, cefotaxime]
Cefotaxime MIC, no compound (—) (MRSA strain AH-1263): 32 µg/mL
MIC (MRSA strain AH-1263; [4]): 16 µg/mL
Cefotaxime MIC, no compound (—) [1]: 32 µg/mL
MIC [1, 4]: 16 µg/mL

CC(=O)OCC1=C(C(=O)O)N2C(=O)[C@@H](NC(=O)Cc3cccs3)[C@H]2SC1 [Cephalothin, cephalothin]
Cephalothin MIC, no compound (—) (MRSA strain AH-1263): 32 µg/mL
MIC (MRSA strain AH-1263; [5]): 16 µg/mL
Cephalothin MIC, no compound (—) [1]: 16 µg/mL
MIC [1, 5]: 32 µg/mL

C[C@@H](O)[C@H]1C(=O)N2C(C(=O)O)=C(SCCN=CN)C[C@H]12 [Imipenem, imipenem]
MIC (MRSA strain AH-1263; [6]): 16 µg/mL
MIC [1, 6]: 32 µg/mL
MIC (MRSA strain AH-2204; [6]): 32 µg/mL

C[C@H]1COc2c(N3CCN(C)CC3)c(F)cc3c(=O)c(C(=O)O)cn1c23 [LEV, levofloxacin]
MIC (CRB): 0.5 µg/mL (≈ 1.38 µM)
MIC (S. aureus strain USA300; [3]): 1 µg/mL (≈ 2.77 µM)
MIC (USA300Δpbp4 pPBP4): 1 µg/mL (≈ 2.77 µM)
MIC (COLnex): 0.25 µg/mL (≈ 0.692 µM)
MIC (CRBΔpbp4): 0.25 µg/mL (≈ 0.692 µM)
MIC (USA300Δpbp4): 0.5 µg/mL (≈ 1.38 µM)

C[C@@H](O)[C@H]1C(=O)N2C(C(=O)O)=C(S[C@@H]3CN[C@H](C(=O)N(C)C)C3)[C@H](C)[C@H]12 [MER, meropenem]
MIC (CRB): 64 µg/mL (≈ 167 µM)
MIC (S. aureus strain USA300; [3]): 4 µg/mL (≈ 10.4 µM)
Minimum inhibitory concentration (S. aureus strain USA300; USA300): 4 µg/mL (≈ 10.4 µM)
MIC (USA300Δpbp4 pPBP4): 4 µg/mL (≈ 10.4 µM)
MIC (COLnex): 1 µg/mL (≈ 2.61 µM)
MIC (CRBΔpbp4): 1 µg/mL (≈ 2.61 µM)
MIC (USA300Δpbp4): 2 µg/mL (≈ 5.22 µM)

CN(C)c1ccc(O)c2c1C[C@H]1C[C@H]3[C@H](N(C)C)C(O)=C(C(N)=O)C(=O)[C@@]3(O)C(O)=C1C2=O [MIN, minocycline]
MIC (CRB): 0.5 µg/mL (≈ 1.09 µM)
MIC (S. aureus strain USA300; [3]): 0.5 µg/mL (≈ 1.09 µM)
MIC (USA300Δpbp4 pPBP4): 0.5 µg/mL (≈ 1.09 µM)
MIC (COLnex): 0.5 µg/mL (≈ 1.09 µM)
MIC (CRBΔpbp4): 0.5 µg/mL (≈ 1.09 µM)
MIC (USA300Δpbp4): 0.5 µg/mL (≈ 1.09 µM)

C/C(=C\C(=O)OCCCCCCCCC(=O)O)C[C@@H]1OC[C@H](C[C@@H]2O[C@H]2[C@@H](C)[C@H](C)O)[C@@H](O)[C@H]1O [MUP, mupirocin]
MIC (CRB): 0.03 µg/mL (≈ 0.0599 µM)
MIC (S. aureus strain USA300; [3]): 0.125 µg/mL (≈ 0.25 µM)
MIC (USA300Δpbp4 pPBP4): 0.125 µg/mL (≈ 0.25 µM)
MIC (COLnex): 0.03 µg/mL (≈ 0.0599 µM)
MIC (CRBΔpbp4): 0.03 µg/mL (≈ 0.0599 µM)
MIC (USA300Δpbp4): 0.125 µg/mL (≈ 0.25 µM)

CCOc1ccc2ccccc2c1C(=O)N[C@@H]1C(=O)N2[C@@H]1SC(C)(C)[C@@H]2C(=O)O [NAF, nafcillin]
MIC (CRB): > 128 µg/mL
MIC (S. aureus strain USA300; [3]): 8 µg/mL (≈ 19.3 µM)
Minimum inhibitory concentration (S. aureus strain USA300; USA300): 8 µg/mL (≈ 19.3 µM)
MIC (USA300Δpbp4 pPBP4): 8 µg/mL (≈ 19.3 µM)
MIC (COLnex): 0.25 µg/mL (≈ 0.603 µM)
MIC (CRBΔpbp4): 0.25 µg/mL (≈ 0.603 µM)
MIC (USA300Δpbp4): 4 µg/mL (≈ 9.65 µM)

CC1(C)S[C@@H]2[C@H](NC(=O)Cc3ccccc3)C(=O)N2[C@H]1C(=O)O [Penicillin G, penicillin G]
Penicillin G MIC, no compound (—) (MRSA strain AH-1263): 16 µg/mL and 8 µg/mL

CCN1CCN(C(=O)N[C@@H](C(=O)N[C@@H]2C(=O)N3[C@@H]2SC(C)(C)[C@@H]3C(=O)O)c2ccccc2)C(=O)C1=O [Piperacillin, piperacillin]
MIC (MRSA strain AH-1263; [7]): 16 µg/mL
MIC [1, 7]: 16 µg/mL
MIC (MRSA strain AH-2204; [7]): 4 µg/mL

NC[C@H]1O[C@H](O[C@H]2[C@H](O)[C@@H](O[C@H]3O[C@H](CO)[C@@H](O)[C@H](N)[C@H]3O)[C@H](N)C[C@@H]2N)[C@H](N)C[C@@H]1O [TOB, tobramycin]
MIC (CRB): 0.06 µg/mL (≈ 0.128 µM)
MIC (S. aureus strain USA300; [3]): 1 µg/mL (≈ 2.14 µM)
MIC (USA300Δpbp4 pPBP4): 1 µg/mL (≈ 2.14 µM)
MIC (COLnex): 0.06 µg/mL (≈ 0.128 µM)
MIC (CRBΔpbp4): 0.06 µg/mL (≈ 0.128 µM)
MIC (USA300Δpbp4): 1 µg/mL (≈ 2.14 µM)

colistin
Minimum inhibitory concentration (S. aureus strain USA300; USA300): 128 µg/mL

Reference: patent publication US20260124213A1, “STAPHYLOCOCCUS AUREUS PBP4 INHIBITORS AND METHOD OF USE” (UNIVERSITY OF ROCHESTER, priority 2022, published 2026)
